Laboratory results reported in US20240415985A1, “PHOTOCLEAVABLE PRODRUG-BASED NANOMEDICINE FOR IN-SITU MONITORABLE CANCER THERAPY” (The University of Hong Kong, priority 2021, published 2024).
Read-outs that look alike come from different tables or passages of the source.

Key:
[1] = Spectrum study of dye degradation under light irradiation (absorbance, fluorescence); format: physicochemical; details: for decomposition of dye upon light irradiation: 530 nm, in ICG/BC NPs and IR820/BC NPs (FIGS. 2K-2M)
Protocol: At different time points, the absorbance and fluorescence were measured by spectrometers without any dilution.

[2] = system: human umbilical vein endothelial cells (HUVECs); assay: Cytotoxicity in dark, biocompatibility evaluation; format: cell-based; details: 24 h, up to 100 μM
Protocol: (§1) HCT116 cells were cultured in RPMI-1640 (Gibco) supplemented with 10% FBS (Gibco) and 100 units/mL antibiotics (Penicillin-Streptomycin, Gibco) at 37° C. in a 5% CO2 humidified atmosphere. HUVECs cells were cultured in DMEM (Gibco) supplemented with 10% FBS (Gibco) and 100 units/mL antibiotics (Penicillin-Streptomycin, Gibco) at 37° C. in a 5% CO2 humidified atmosphere.
(§2) The cell viability was evaluated by MTT assay. HCT116 cells were incubated in 96-well microliter plates for 24 h. Then, gradient concentrations of BC prodrug or IR783/BC NPs in RPMI 1640 culture medium were added to the cells. After 6 h incubation, the residual BC or IR783/BC NPs were removed by fresh RPMI 1640 culture medium (100 μL). Then, the cells were irradiated by 530 nm LED light (50 mW/cm^2, 5 min) or incubated at room temperature without light. After another incubation for 24 h, MTT solution (10 μL, 10 mg/mL) was added to the cells to cultivate for 3 h. Next, the cell culture medium was discarded, and DMSO (100 μL) was then added. The absorbance was measured by a multi-mode microplate reader at 490 nm, 570 nm and 630 nm.

[3] = Loading capacity and encapsulation efficiency of IR783 and BC in NPs by HPLC; format: physicochemical
Protocol: BODIPY-Cb was dissolved in DMSO (20 μL, 10 mg/mL), and added dropwise to a 300 μL aqueous solution containing IR783 (400 μg/mL) under vigorous vortex. The solution was centrifuged once (2000×g, 10 min, 4° C.) to remove the precipitate. Then the supernatant was centrifuged twice (30,000×g, 30 min, 4° C.), and the resulting precipitate was re-suspended in 300 μL of sterile PBS. Other prodrug/dye NPs were prepared following the same procedure as above. The contents of IR783 and BC in the resulted nanoparticle solution were determined by HPLC analysis. Their loading capacity and encapsulation efficiency were calculated as follow: […]

[4] = In vivo biodistribution by fluorescence imaging in HCT116 tumor-bearing mice; parameters: species or system BALB/c nude mice; details: i.v., imaging 1-24 h post injection
Protocol: The biodistribution of IR783/BC NPs in the HCT116 tumor model was visualized by an in vivo fluorescence imaging system (Cailper PerkinElemer, Waltham, MA, United States). IR783, as a NIR fluorescent dye, was directly detected for living imaging. Mice were treated with free IR783 and IR783/BC NPs via intravenous injection with a dose of IR783 at 100 μg/kg. Fluorescence imaging was performed at 1, 6, 16, 20, and 24 h post injection. At 24 h, mice were euthanized and the tumors and major organs (heart, liver, spleen, lung, kidney) were excised for ex vivo imaging.

[5] = Singlet oxygen detection in solution (SOSG assay); format: physicochemical; details: 530 nm, 50 mW/cm^2, 0-1 min; equivalent concentration of BC
Protocol: Singlet oxygen generation was measured both in solutions and cells using SOSG and DCFH-DA as indicator, respectively. […] Besides, the intracellular ^1O2 generation was detected by CLSM. […] Subsequently, the cells were washed with PBS for 3 times and incubated with DCFH-DA (10 μM) for 30 min. The cells were irradiated by LED (530 nm, 50 mW/cm^2, 5 min) for the light irradiation groups. The intracellular fluorescence was observed by CLSM imaging to evaluate the ^1O2 generation.

[6] = system: HCT116 cells; assay: Anti-proliferation effect by MTT assay; format: cell-based, human
Protocol: as §1, §2

[7] = system: HCT116 cells; assay: Live/dead staining (Calcein-AM/PI); format: cell-based, human; details: BC equivalent 50 μM; groups with or without 530 nm irradiation as stated
Protocol: For live/dead staining, HCT116 cells were seeded in confocal dishes at a density of 10000 cells/well and treated with PBS, free IR783, free BC and IR783/BC NPs with an equivalent concentration of BC at 50 μM. For the irradiation groups, cells were washed by PBS after 6 h and irradiated by 530 nm LED for 5 min. Calcein-AM and PI were then added into the medium and the cells were observed by CLSM without any treatment.

[8] = system: HCT116 cells; assay: Apoptosis study (Annexin-V FITC/PI, flow cytometry); format: cell-based, human; details: 20 μM, with or without light irradiation
Protocol: For apoptosis study, HCT116 cells were seeded in 6-well plates at a density of 50000 cells/well and treated with free Cb or IR783/BC NPs at the equivalent concentration of Cb at 5 μM and 20 μM for 6 h. Then the cells were washed by PBS. The cells in the irradiation group were irradiated by light for 5 min. After 24-h incubation, cells were washed by PBS, collected by trypsin digestion, and stained with Annexin-V/FITC apoptosis kit. ACEA NovoCyte Quanteon flow cytometer (ACEA Biosciences, San Diego, CA, USA) was used for cell study.

[9] = refs [17, 39]; cited from earlier work
[10] = system: HCT116 xenografts; assay: In vivo antitumor efficacy; parameters: species or system BALB/c nude mice; details: without light irradiation, i.v. Day 0, 4, 8, 12
Protocol: BALB/c nude mice were purchased from SLAC Experiment Animal Co., Ltd. (Shanghai, China) and kept in the Laboratory Animal Center of Fudan University (Shanghai, China). For the subcutaneous tumor model, male BALB/c nude mice were injected with 2×10^7 HCT116 cells subcutaneously. The mice were then further kept in SPF condition for 5-7 days until tumors were observed.
The antitumor efficacy of IR783/BC NPs in the presence or absence of light was investigated in HCT116 tumor mouse model. The mice were randomly divided into six groups when the tumor size reached about 200 mm^3. For different groups, mice were treated with different formulations via i.v. injection at Day 0, 4, 8, and 12: (1) PBS; (2) PBS+hv; (3) IR783+hv; (4) Cb; (5) IR783/BC NPs; (6) IR783/BC NPs+hv. For the irradiation group, light irradiations (100 mW/cm^2, 10 min) were performed 24 h post injection. The dose for each treatment was set as 5 mg/kg. Tumor sizes and body weights were measured in a 2-day interval, and the tumor volume was calculated as V=½×width^2×length. At the end of the experiment (Day 14), all mice were euthanized, and the tumors and major organs were collected and sliced for H&E staining and immunohistochemical analysis.

## CC1(C)C(=CC=C2CCCC(C=CC3=[N+](CCCCS(=O)(=O)[O-])c4ccc5ccccc5c4C3(C)C)=C2Cl)N(CCCCS(=O)(=O)[O-])c2ccc3ccccc3c21.[Na+] [IR820]
[1]
  decomposition of dye upon light irradiation: decomposed

## CC1(C)C(=CC=C2CCCC(C=CC3=[N+](CCCCS(=O)(=O)[O-])c4ccccc4C3(C)C)=C2Cl)N(CCCCS(=O)(=O)[O-])c2ccccc21.[Na+] [IR783]
[2]
  cytotoxicity in dark: Negligible cytotoxicity
[1]; 530 nm light irradiation
  NIR fluorescence emission pattern upon light irradiation: did not see similar phenomena
[3]
  Encapsulation Efficiency: 0.02%
  Loading Capacity: 1.15%
[4]
  whole-body fluorescence retention after systemic administration: fleetly eliminated
[5]
  ^1O2 generation (SOSG fluorescence): much lower efficiency

## boron-dipyrromethene-chlorambucil [BC]
[6]; 530 nm light irradiation, on BC prodrug basis, read-out: IC50 (cell viability)
  IC50: 9.24 µM
[3]; listed as BC prodrug
  Encapsulation Efficiency: 84.37%
  Loading Capacity: 98.85%
[3]; listed as BODIPY-Cb
  Encapsulation Efficiency: 84.37%
  Loading Capacity: 98.85%
[7]
  cell death in live-dead staining: dead cells presenting red fluorescence were observed

## O=C(O)CCCc1ccc(N(CCCl)CCCl)cc1 [chlorambucil, Chlorambucil]
[8]
  apoptosis: about 5%
[9]
  hydrolysis in aqueous solution: rapidly hydrolyze
[6]; with/without light irradiation (FIG. 8B)
  cytotoxicity of free drug: relatively low
[10]
  anti-tumor efficacy: undermined

## CC1(C)C(/C=C/C=C/C=C/C=C2\N(CCCCS(=O)(=O)O)c3ccc4ccccc4c3C2(C)C)=[N+](CCCCS(=O)(=O)[O-])c2ccc3ccccc3c21 [ICG, Indocyanine green]
[1]
  decomposition of dye upon light irradiation: decomposed
